± gives the uncertainty stated by the source.
Experiment: xn = mol fraction of the nth substance listed
Conditions: 101 kPa; for electrical conductivity: frequency 3 MHz

Cn1cc[n+](CCCN)c1.F[B-](F)(F)F + CC#N
Conditions | electrical conductivity, 288.15 K [S/m] | electrical conductivity, 293.15 K [S/m] | electrical conductivity, 298.15 K [S/m] | electrical conductivity, 303.15 K [S/m] | viscosity, 288.15 K [mPa·s] | viscosity, 293.15 K [mPa·s] | viscosity, 298.15 K [mPa·s] | viscosity, 303.15 K [mPa·s]
x1 = 0.1001 | 1.69 ± 0.017 | 1.94 ± 0.019 | 2.243 ± 0.022 | 2.56 ± 0.026 | 18.13 ± 0.12 | 13.81 ± 0.1 | 10.64 ± 0.088 | 8.386 ± 0.079
x1 = 0.2005 | 1.25 ± 0.013 | 1.49 ± 0.015 | 1.742 ± 0.017 | 2.036 ± 0.02 | 36 ± 0.22 | 27.35 ± 0.17 | 21.28 ± 0.14 | 16.73 ± 0.12
x1 = 0.3 | 0.915 ± 0.01 | 1.103 ± 0.011 | 1.309 ± 0.013 | 1.535 ± 0.015 | 55.18 ± 0.3 | 42.52 ± 0.26 | 33.13 ± 0.21 | 26.24 ± 0.17
x1 = 0.399 | 0.614 ± 0.01 | 0.749 ± 0.01 | 0.906 ± 0.01 | 1.08 ± 0.011 | 75.79 ± 0.58 | 58.84 ± 0.34 | 46.19 ± 0.28 | 36.56 ± 0.23
x1 = 0.4996 | 0.416 ± 0.01 | 0.519 ± 0.01 | 0.625 ± 0.01 | 0.746 ± 0.01 | 98.1 ± 1 | 76.44 ± 0.6 | 60.38 ± 0.35 | 48.34 ± 0.3
x1 = 0.598 | 0.281 ± 0.01 | 0.35 ± 0.01 | 0.427 ± 0.01 | 0.515 ± 0.01 | 121.5 ± 1.6 | 95.92 ± 0.99 | 76.12 ± 0.59 | 61.21 ± 0.36
x1 = 0.6975 | 0.168 ± 0.01 | 0.211 ± 0.01 | 0.267 ± 0.01 | 0.329 ± 0.01 | 147 ± 2.3 | 116.8 ± 1.5 | 93.68 ± 0.93 | 75.42 ± 0.57
x1 = 0.7983 | 0.088 ± 0.01 | 0.117 ± 0.01 | 0.153 ± 0.01 | 0.195 ± 0.01 | 174.5 ± 3.1 | 139.6 ± 2.1 | 112 ± 1.4 | 90.05 ± 0.86
x1 = 0.8987 | 0.044 ± 0.01 | 0.062 ± 0.01 | 0.085 ± 0.01 | 0.112 ± 0.01 | 202.6 ± 4 | 161.9 ± 2.7 | 130.2 ± 1.8 | 104.8 ± 1.2
x1 = 1 | 0.011 ± 0.01 | 0.018 ± 0.01 | 0.026 ± 0.01 | 0.04 ± 0.01 | 231.2 ± 4.9 | 185.4 ± 3.4 | 149.6 ± 2.4 | 121.1 ± 1.6

Reference: the CheMixHub ionic liquid set
